Counter-ions that a name gives are not always drawn. Values belong to the compound of their own block, whether it stands above or below them.
Tests used:
Beta adrenergic β = experiment: Binding to neurotransmitter receptors: beta adrenergic ([3H] DHA); conditions: read-out: K0.5
human LDL's = experiment: Oxidative modification of human LDL's by copper sulphate (MDA production); format: biochemical; conditions: for IC50: read-out: IC50 (reduction of MDA production by 50%), Cu2+ (copper sulphate 5×10^-6 M), 24 hours
Procedure: Human LDL's are incubated for 24 hours in the presence of copper sulphate (5×10^-6 M) and in the absence or in the presence of the test compounds (10^-7 M to 10^-4 M).
After incubation, the peroxidation of the LDL's is evaluated by agar gel electrophoresis and by the formation of one of the products of lipid peroxidation: malondialdehyde (MDA) (Parthasarathy S., Young S. G., Witztum J. L., Pittman R. C. and Steinberg D.; J. Clin. Invest. 77, 641-644, 1986).

cardiac cells [1] = experiment: Oxidative necrosis of cardiac cells induced by hypoxanthine/xanthine oxidase (α-HBDH release); format: cell-based, rat; conditions: for activity at 10 µM / activity at 1 µM / activity at 0.1 µM / inhibition at 1 µM: Rattus norvegicus, Cardiomyocyte, 4 h; for activity at 10 µM / activity at 1 µM / activity at 0.1 µM / necrosis index: XO + HX, control XO + HX = 100, mean ±SD; for activity at 10 µM / activity at 1 µM / activity at 0.1 µM: read-out: necrosis index; for inhibition at 1 µM: from 10^-6 M, read-out: reduction of oxidative necrosis of the cardiomyocytes; for necrosis index: 240 min
Procedure: Cardiac cells of newly born rats are used between the 5th and 7th day following culturing. Oxidative necrosis is induced by the enzymatic production system of hypoxanthine free radicals (HX, 1 mM) and xanthine oxidase (XO, 10 mU/ml). The necrosis is evaluated 4 hours after the addition of XO/HX by measuring by spectrophotometry the cytosolic α-hydroxybutyrate dehydrogenase (α-HBDH) activity released into the supernatant liquor. Two reference molecules (Probucol, vitamin E) and two molecules representative of the present invention (corresponding to Examples 13 and 19) were tested. The cells are treated with the molecules 16 hours and 1 hour before the start of the experiment after renewal of the medium. At the start of the experiment, the treatment is repeated one last time.
The necrosis index 100 corresponds to the release of 46.7±5.3% of the cytosolic content of α-HBDH into the supernatant liquor in 4 hours.
The results are expressed as the mean ±SD (2<n≤4, 3 to 4 repetitions per experiment).

type L Ca^2+ channel = target: T1, type L Ca^2+ channel (Rattus norvegicus, UniProt P22002); experiment: Inhibition of 45Ca2+ influx through the Ca2+ channel in A7 r5 cells; format: cell-based; conditions: 45Ca2+ influx, A7 r5 cells; read-out: K0.5 (50% of 45Ca2+ influx inhibited)
T1 construct: cell lines from the aorta of newly born rats; host or cells: A7 r5
T1 sequence (P22002 whole entry): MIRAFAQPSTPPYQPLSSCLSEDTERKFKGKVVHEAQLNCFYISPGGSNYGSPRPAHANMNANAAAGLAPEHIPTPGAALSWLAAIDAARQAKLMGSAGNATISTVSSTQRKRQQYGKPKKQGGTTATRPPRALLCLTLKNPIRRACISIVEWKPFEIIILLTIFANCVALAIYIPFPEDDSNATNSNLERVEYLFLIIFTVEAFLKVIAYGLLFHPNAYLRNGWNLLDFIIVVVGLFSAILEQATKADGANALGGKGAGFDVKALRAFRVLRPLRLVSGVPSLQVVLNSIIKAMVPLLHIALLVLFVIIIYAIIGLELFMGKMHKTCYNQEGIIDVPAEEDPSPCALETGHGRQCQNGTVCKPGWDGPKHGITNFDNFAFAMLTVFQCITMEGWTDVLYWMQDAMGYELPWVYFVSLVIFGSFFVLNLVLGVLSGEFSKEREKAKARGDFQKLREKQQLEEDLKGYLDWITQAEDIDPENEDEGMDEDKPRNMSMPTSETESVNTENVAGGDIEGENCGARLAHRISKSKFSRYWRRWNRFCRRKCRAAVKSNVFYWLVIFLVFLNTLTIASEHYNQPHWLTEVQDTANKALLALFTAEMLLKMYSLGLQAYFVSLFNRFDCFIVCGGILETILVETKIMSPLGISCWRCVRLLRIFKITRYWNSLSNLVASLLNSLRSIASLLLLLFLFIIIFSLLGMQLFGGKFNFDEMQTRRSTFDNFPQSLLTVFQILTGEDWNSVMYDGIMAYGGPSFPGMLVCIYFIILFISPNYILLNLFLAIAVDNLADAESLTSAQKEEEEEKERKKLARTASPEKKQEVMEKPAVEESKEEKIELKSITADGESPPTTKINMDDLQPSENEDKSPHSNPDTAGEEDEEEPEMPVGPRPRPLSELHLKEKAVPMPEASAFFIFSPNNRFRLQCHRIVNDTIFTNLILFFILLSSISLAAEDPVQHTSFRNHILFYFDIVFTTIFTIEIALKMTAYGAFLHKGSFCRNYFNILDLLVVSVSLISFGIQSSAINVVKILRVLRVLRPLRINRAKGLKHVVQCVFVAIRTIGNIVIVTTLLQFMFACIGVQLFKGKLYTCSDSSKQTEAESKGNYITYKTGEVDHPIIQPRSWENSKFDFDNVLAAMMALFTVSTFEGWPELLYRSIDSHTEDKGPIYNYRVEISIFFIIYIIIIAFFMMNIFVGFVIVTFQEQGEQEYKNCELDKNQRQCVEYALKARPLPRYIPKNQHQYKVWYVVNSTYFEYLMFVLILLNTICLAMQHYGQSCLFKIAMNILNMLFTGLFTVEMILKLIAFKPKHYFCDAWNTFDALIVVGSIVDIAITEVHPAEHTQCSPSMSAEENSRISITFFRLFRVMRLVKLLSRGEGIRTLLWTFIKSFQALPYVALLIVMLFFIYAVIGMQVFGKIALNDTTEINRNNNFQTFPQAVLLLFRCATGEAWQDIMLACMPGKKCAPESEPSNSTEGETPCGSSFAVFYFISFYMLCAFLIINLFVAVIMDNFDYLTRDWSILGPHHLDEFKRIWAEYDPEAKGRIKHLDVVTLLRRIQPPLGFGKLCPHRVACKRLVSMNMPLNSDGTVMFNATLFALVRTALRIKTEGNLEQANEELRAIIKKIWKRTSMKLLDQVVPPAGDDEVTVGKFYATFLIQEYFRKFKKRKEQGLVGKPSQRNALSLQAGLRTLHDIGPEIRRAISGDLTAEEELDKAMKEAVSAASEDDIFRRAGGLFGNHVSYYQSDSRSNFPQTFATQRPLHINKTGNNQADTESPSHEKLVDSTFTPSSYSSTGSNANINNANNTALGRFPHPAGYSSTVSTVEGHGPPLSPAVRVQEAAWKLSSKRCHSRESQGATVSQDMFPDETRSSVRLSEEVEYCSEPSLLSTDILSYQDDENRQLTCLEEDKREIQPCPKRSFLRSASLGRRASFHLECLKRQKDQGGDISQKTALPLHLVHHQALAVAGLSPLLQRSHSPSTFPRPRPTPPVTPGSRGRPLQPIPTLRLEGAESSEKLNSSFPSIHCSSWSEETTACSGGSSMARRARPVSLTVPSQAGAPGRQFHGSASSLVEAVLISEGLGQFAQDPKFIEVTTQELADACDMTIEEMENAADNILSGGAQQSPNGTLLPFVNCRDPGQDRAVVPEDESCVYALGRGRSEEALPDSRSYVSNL
T1 sequence (P54290 25-945 partner limits assumed): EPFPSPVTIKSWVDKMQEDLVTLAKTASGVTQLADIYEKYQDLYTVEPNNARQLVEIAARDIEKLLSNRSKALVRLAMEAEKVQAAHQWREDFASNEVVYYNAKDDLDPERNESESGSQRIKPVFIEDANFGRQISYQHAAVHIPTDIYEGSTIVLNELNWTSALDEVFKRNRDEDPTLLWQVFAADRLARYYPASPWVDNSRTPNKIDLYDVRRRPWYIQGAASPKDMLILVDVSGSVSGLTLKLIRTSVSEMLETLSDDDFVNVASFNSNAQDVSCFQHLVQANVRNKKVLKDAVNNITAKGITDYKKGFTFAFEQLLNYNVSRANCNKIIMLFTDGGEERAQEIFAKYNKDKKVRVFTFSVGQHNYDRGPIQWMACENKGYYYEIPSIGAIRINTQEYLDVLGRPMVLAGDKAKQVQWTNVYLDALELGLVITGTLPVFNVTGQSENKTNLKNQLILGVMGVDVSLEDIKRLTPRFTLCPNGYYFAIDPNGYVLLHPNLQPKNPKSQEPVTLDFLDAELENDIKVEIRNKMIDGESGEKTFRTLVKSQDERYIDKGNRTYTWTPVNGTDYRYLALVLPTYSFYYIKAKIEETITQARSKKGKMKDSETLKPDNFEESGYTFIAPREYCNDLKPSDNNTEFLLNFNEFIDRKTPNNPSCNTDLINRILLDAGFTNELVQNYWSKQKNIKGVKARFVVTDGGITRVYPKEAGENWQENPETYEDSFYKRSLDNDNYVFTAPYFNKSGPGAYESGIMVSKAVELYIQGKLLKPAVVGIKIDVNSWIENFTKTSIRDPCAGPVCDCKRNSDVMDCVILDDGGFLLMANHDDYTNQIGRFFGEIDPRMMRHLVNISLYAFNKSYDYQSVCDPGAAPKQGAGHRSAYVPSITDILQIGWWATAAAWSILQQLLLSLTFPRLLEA
T1 sequence (P54290 946-1091 partner limits assumed): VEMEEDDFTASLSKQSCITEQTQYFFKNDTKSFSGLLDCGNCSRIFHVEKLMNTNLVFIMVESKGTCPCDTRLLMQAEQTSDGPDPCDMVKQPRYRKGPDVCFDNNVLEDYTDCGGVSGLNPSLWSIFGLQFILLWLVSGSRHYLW

type L calcium channels [2] = experiment: Binding: displacement of [3H] D888 at the Ca2+ channel; conditions: read-out: K0.5 (50% of specifically fixed radioactivity displaced)
type L calcium channels [3] = target: T2, type L calcium channels (Oryctolagus cuniculus, UniProt P07293); experiment: Binding: displacement of [3H] PN 200-110 at the Ca2+ channel
T2 construct: microsomal fractions enriched with type L calcium channels; from tissue; host or cells: microsomal fractions

cardiac cells [4] = experiment: Protection of cardiac cells from necrosis induced by intracellular acidosis (αHBDH release); format: cell-based, rat; conditions: Rattus norvegicus, Cardiomyocyte
Procedure: a) Cardiac cells: the cardiac cells are prepared from the hearts of newly born (3 days) Wistar rats in accordance with the technique of RENAUD JF., MEAUX JP., ROMEY G., SCHMID A., LAZDUNSKI M., Activation of the voltage-dependent Ca^2+ channels in rat heart cells by dihydropyridine derivative--Biochem. Biophys. Res. Commun., 125, 405-412 (1984).
The cardiomyocytes are isolated from the ventricles by enzymatic dissociation and cultured at 185,000 cells/cm^2. The cells are kept at 37° C. under an air/CO2 atmosphere (95 V/5 V) saturated with water. The cardiomyocytes are used between the 3rd and 8th day following culturing.
Intracellular acidosis is induced in accordance with the conditions published by RENAUD JF., Internal pH Na^+ and Ca^2+ regulation by trimetazidine during cardiac cell acidosis. Cardiovasc. Drugs and Ther., 1, 667-686 (1988) in the presence or absence of the products to be tested. Cellular necrosis is evaluated by measuring by spectrophotometry using the Boerhinger 124800 kit the kinetics of the release of a cytosolic enzyme α-hydroxybutyrate dehydrogenase (αHBDH) into the extracellular medium.
The signal measured corresponds to the amplitude of the necrosis induced by the acidosis. The values are the means ±SD. The number of experiments is indicated in parentheses.

Alpha adrenergic α2 = experiment: Binding to neurotransmitter receptors: alpha2 adrenergic ([3H] Rauwolscine); conditions: α2, [3H] Rauwolscine; read-out: K0.5
[5] = read-out: amplitude of the necrosis induced by the acidosis

IC50 (Beta adrenergic β): 2.1 nM
Compound: C=CCc1ccccc1OCC(O)CNC(C)C (centres unmarked) [Alprenolol]

IC50 (human LDL's): 3000 nM
Compound: COc1ccc(CSC2CCN(Cc3cc(C(C)(C)C)c(O)c(C(C)(C)C)c3)CC2)c(OC)c1OC [Example 13, 4-(2,3,4-trimethoxybenzylthio)-1-(3,5-di-tert.-butyl-4-hydroxybenzyl)piperidine]
protection of cardiac cells with respect to oxidative necrosis (in words) (cardiac cells [1]): markedly superior to the anti-oxidant reference products
activity at 10 µM (cardiac cells [1]; 10^-5 M): 16.1 ± 5.6%
activity at 1 µM (cardiac cells [1]; 10^-6 M): 52.4 ± 18.2%
activity at 0.1 µM (cardiac cells [1]; 10^-7 M): 75.7 ± 19.7%
inhibition at 1 µM (cardiac cells [1]): ≥ 50%

IC50 (human LDL's): 1000 nM
Compound: COc1ccc(CSC2CCN(CCCOc3cc(C(C)(C)C)c(O)c(C(C)(C)C)c3)CC2)c(OC)c1OC [Example 14, 4-(2,3,4-trimethoxybenzylthio)-1-[3-(3,5-di-tert.-butyl-4-hydroxyphenoxy)propyl]piperidine]

IC50 (human LDL's): 3000 nM
Compound: COc1ccc(CSC2CCN(CCCc3cc(C(C)(C)C)c(O)c(C(C)(C)C)c3)CC2)c(OC)c1OC [Example 15, 4-(2,3,4-trimethoxybenzylthio)-1-[3-(3,5-di-tert.-butyl-4-hydroxyphenyl)propyl]piperidine]

IC50 (human LDL's): 3000 nM
Compound: COc1ccc(CSC2CCN(CC(O)CSc3cc(C(C)(C)C)c(O)c(C(C)(C)C)c3)CC2)c(OC)c1OC (centres unmarked) [Example 16, 4-(2,3,4-trimethoxybenzylthio)-1-[3-(3,5-di-tert.-butyl-4-hydroxyphenylthio)-2-hydroxypropyl]piperidine]

IC50 (human LDL's): 2000 nM
Compound: COc1ccc(CSC2CCN(CC(O)COc3cc(C(C)(C)C)c(O)c(C(C)(C)C)c3)CC2)c(OC)c1OC (centres unmarked) [Example 17, 4-(2,3,4-trimethoxybenzylthio)-1-[3-(3,5-di-tert.-butyl-4-hydroxyphenoxy)-2-hydroxypropyl]piperidine]

IC50 (human LDL's): 2000 nM
Compound: COc1ccc(CSC2CCN(CCCSc3cc(C(C)(C)C)c(O)c(C(C)(C)C)c3)CC2)c(OC)c1OC [Example 18, 4-(2,3,4-trimethoxybenzylthio)-1-[3-(3,5-di-tert.butyl-4-hydroxyphenylthio)propyl]piperidine]

IC50 (human LDL's): 300 nM
Compound: COc1ccc(CSC2CCN(CCCOc3cc(C)c(O)c(C)c3C)CC2)c(OC)c1OC [Example 19, 4-(2,3,4-trimethoxybenzylthio)-1-[3-(2,3,5-trimethyl-4-hydroxyphenoxy)propyl]piperidine]
protection of human LDL's with respect to oxidative modification (in words) (human LDL's; copper sulphate): greater ability
protection of cardiac cells with respect to oxidative necrosis (in words) (cardiac cells [1]): markedly superior to the anti-oxidant reference products
activity at 10 µM (cardiac cells [1]; 10^-5 M): 7.9 ± 4.1%
activity at 1 µM (cardiac cells [1]; 10^-6 M): 38.4 ± 13.7%
activity at 0.1 µM (cardiac cells [1]; 10^-7 M): 86 ± 11.5%
inhibition at 1 µM (cardiac cells [1]): ≥ 50%

IC50 (human LDL's): 1000 nM
Compound: COc1ccc(CSC2CCN(CCCCCSc3cc(C(C)(C)C)c(O)c(C(C)(C)C)c3)CC2)c(OC)c1OC [Example 20, 4-(2,3,4-trimethoxybenzylthio)-1-[5-(3,5-di-tert.butyl-4-hydroxyphenylthio)pentyl]piperidine]

IC50 (human LDL's): 800 nM
Compound: COc1ccc(CSC2CCN(CCCCCOc3cc(C(C)(C)C)c(O)c(C(C)(C)C)c3)CC2)c(OC)c1OC [Example 21, 4-(2,3,4-trimethoxybenzylthio)-1-[5-(3,5-di-tert.-butyl-4-hydroxyphenoxy)pentyl]piperidine]

IC50 (type L Ca^2+ channel): 23 nM
IC50 (type L calcium channels [2]): 2.5 nM
Compound: COc1cccc(CCN(C)CCCC(C#N)(c2ccc(OC)c(OC)c2)C(C)C)c1 (centres unmarked) [Example D888, reference compound]

IC50 (human LDL's): 3000 nM
Compound: CC(C)(Sc1cc(C(C)(C)C)c(O)c(C(C)(C)C)c1)Sc1cc(C(C)(C)C)c(O)c(C(C)(C)C)c1 [Probucol, reference compound]
activity at 10 µM (cardiac cells [1]; 10^-5 M): 68 ± 0.9%
activity at 1 µM (cardiac cells [1]; 10^-6 M): 95 ± 1.7%

Compound: COc1ccc(CN2CCNCC2)c(OC)c1OC [Trimetazidine, 2 HCl, trimetazidine dihydrochloride, reference compound]
IC50 (type L calcium channels [3]): > 100000 nM
IC50 (type L calcium channels [2]): > 100000 nM
activity at 20 µM (cardiac cells [4]; [5]): 94.6%
activity at 100 µM (cardiac cells [4]; [5]): 75.8%
activity at 500 µM (cardiac cells [4]; [5]): 58.3%
inhibition at 500 µM (cardiac cells [4]; read-out: protection of cell population subjected to intracellular acidosis): 42%
IC50 (Beta adrenergic β): > 100000 nM

Compound: COC(=O)[C@@H]1[C@H]2C[C@H]3c4[nH]c5ccccc5c4CCN3C[C@@H]2CC[C@@H]1O [Yohimbine, reference compound]
IC50 (Alpha adrenergic α2): 31 nM

IC50 (human LDL's): > 100000 nM
Compound: vitamin E [reference compound]
necrosis index (cardiac cells [1]; 10^-5 M, 10 µM): 54.9 ± 11.3
necrosis index (cardiac cells [1]; 10^-6 M, 1 µM): 87.6 ± 5.7
necrosis index (cardiac cells [1]; 10^-7 M, 0.1 µM): 97.1 ± 2.6
